Data reported in PubChem BioAssay (NCI).
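Test compounds were applied to cells in 96-well plates for 48 hours at 5 doses. Abbreviation: GI50, concentration required for 50% inhibition of growth. TGI denotes the concentration required for complete inhibition of growth.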

Assays:
Assay in all cases: NCI tumour cell line growth inhibition, 48 h
NCI-H226 lung = test system: NCI-H226 lung
A549 NSCLC = test system: A549 NSCLC
RXF 393 renal = test system: RXF 393 renal
HT29 colon = test system: HT29 colon
UACC-62 melanoma = test system: UACC-62 melanoma
ACHN renal = test system: ACHN renal
T-47D breast = test system: T-47D breast
OVCAR-3 ovarian = test system: OVCAR-3 ovarian
BT-549 breast = test system: BT-549 breast
U251 CNS = test system: U251 CNS
KM12 colon = test system: KM12 colon
SF-295 CNS = test system: SF-295 CNS
COLO 205 colon = test system: COLO 205 colon
SR leukemia = test system: SR leukemia
NCI-H522 lung = test system: NCI-H522 lung
K-562 leukemia = test system: K-562 leukemia
CAKI-1 renal = test system: CAKI-1 renal
TK-10 renal = test system: TK-10 renal
SK-MEL-28 melanoma = test system: SK-MEL-28 melanoma
HOP-92 NSCLC = test system: HOP-92 NSCLC
EKVX NSCLC = test system: EKVX NSCLC
786-0 renal = test system: 786-0 renal
HCT-15 colon = test system: HCT-15 colon
M14 melanoma = test system: M14 melanoma
MOLT-4 leukemia = test system: MOLT-4 leukemia
SF-268 CNS = test system: SF-268 CNS
PC-3 prostate = test system: PC-3 prostate
NCI/ADR-RES ovarian = test system: NCI/ADR-RES ovarian
SW-620 colon = test system: SW-620 colon
NCI-H460 lung = test system: NCI-H460 lung
LOX IMVI melanoma = test system: LOX IMVI melanoma
HCT-116 colon = test system: HCT-116 colon
SK-MEL-5 melanoma = test system: SK-MEL-5 melanoma
SK-MEL-2 melanoma = test system: SK-MEL-2 melanoma
RPMI-8226 leukemia = test system: RPMI-8226 leukemia
HS 578T breast = test system: HS 578T breast
SF-539 CNS = test system: SF-539 CNS
MALME-3M melanoma = test system: MALME-3M melanoma
MCF7 breast = test system: MCF7 breast
SN12C renal = test system: SN12C renal
SNB-19 CNS = test system: SNB-19 CNS
OVCAR-4 ovarian = test system: OVCAR-4 ovarian
UO-31 renal = test system: UO-31 renal
SNB-75 CNS = test system: SNB-75 CNS
OVCAR-8 ovarian = test system: OVCAR-8 ovarian
HL-60(TB) leukemia = test system: HL-60(TB) leukemia
IGROV1 ovarian = test system: IGROV1 ovarian
HOP-62 NSCLC = test system: HOP-62 NSCLC
OVCAR-5 ovarian = test system: OVCAR-5 ovarian
A498 renal = test system: A498 renal
MDA-MB-435 = test system: MDA-MB-435
SK-OV-3 ovarian = test system: SK-OV-3 ovarian
CCRF-CEM leukemia = test system: CCRF-CEM leukemia
MDA-MB-231 breast = test system: MDA-MB-231 breast
UACC-257 melanoma = test system: UACC-257 melanoma
DU-145 prostate = test system: DU-145 prostate
HCC-2998 colon = test system: HCC-2998 colon

`CS(=O)c1nccc(-c2c(-c3ccc(F)c(OCCc4ccc(F)cc4)c3)nc3sccn23)n1` (centres undefined) gave a GI50 (NCI-H226 lung) of 15.5 µM, a TGI (NCI-H226 lung) of 32.4 µM and a GI50 (A549 NSCLC) of over 100 µM. The TGI (A549 NSCLC) was over 100 µM, the GI50 (RXF 393 renal) was 13.3 µM and the TGI (RXF 393 renal) was 26.3 µM. It also gave a GI50 (HT29 colon) of 14.9 µM, a TGI (HT29 colon) of 30.1 µM and a GI50 (UACC-62 melanoma) of 16.1 µM. The TGI (UACC-62 melanoma) was 33.2 µM, the GI50 (ACHN renal) was 2.07 µM and the TGI (ACHN renal) was 4.37 µM. The GI50 (T-47D breast) was 2.49 µM, the TGI (T-47D breast) was 6.12 µM and the GI50 (OVCAR-3 ovarian) was 3.45 µM. The TGI (OVCAR-3 ovarian) was 12.9 µM, the GI50 (BT-549 breast) was 18.4 µM and the TGI (BT-549 breast) was 37.5 µM. The GI50 (U251 CNS) was 28.8 µM, the TGI (U251 CNS) was over 100 µM and the GI50 (KM12 colon) was 14.5 µM. For the same compound, the TGI (KM12 colon) was 29.2 µM, the GI50 (SF-295 CNS) was over 100 µM and the TGI (SF-295 CNS) was over 100 µM. It also gave a GI50 (COLO 205 colon) of 28.4 µM, a TGI (COLO 205 colon) of over 100 µM and a GI50 (SR leukemia) of 4.22 µM. The TGI (SR leukemia) was 28.8 µM, the GI50 (NCI-H522 lung) was 13.5 µM and the TGI (NCI-H522 lung) was 29.7 µM. It also gave a GI50 (K-562 leukemia) of 3.04 µM, a TGI (K-562 leukemia) of 11.7 µM and a GI50 (CAKI-1 renal) of 11.1 µM. The TGI (CAKI-1 renal) was 23 µM, the GI50 (TK-10 renal) was 30.9 µM and the TGI (TK-10 renal) was over 100 µM. For the same compound, the GI50 (SK-MEL-28 melanoma) was 9.81 µM, the TGI (SK-MEL-28 melanoma) was 21.5 µM and the GI50 (HOP-92 NSCLC) was 6.72 µM. For the same compound, the TGI (HOP-92 NSCLC) was 26.7 µM, the GI50 (EKVX NSCLC) was 17 µM and the TGI (EKVX NSCLC) was 42.3 µM. The GI50 (786-0 renal) was 34.8 µM, the TGI (786-0 renal) was over 100 µM and the GI50 (HCT-15 colon) was 3.95 µM. The TGI (HCT-15 colon) was 16.9 µM, the GI50 (M14 melanoma) was 15.2 µM and the TGI (M14 melanoma) was 30.4 µM. For the same compound, the GI50 (MOLT-4 leukemia) was 4.04 µM, the TGI (MOLT-4 leukemia) was 15.8 µM and the GI50 (SF-268 CNS) was 16.1 µM. For the same compound, the TGI (SF-268 CNS) was 32.1 µM, the GI50 (PC-3 prostate) was 11.9 µM and the TGI (PC-3 prostate) was 27.4 µM. The GI50 (NCI/ADR-RES ovarian) was 20.3 µM, the TGI (NCI/ADR-RES ovarian) was 49 µM and the GI50 (SW-620 colon) was 3.5 µM. The TGI (SW-620 colon) was 14.1 µM, the GI50 (NCI-H460 lung) was 4.89 µM and the TGI (NCI-H460 lung) was 17.4 µM. For the same compound, the GI50 (LOX IMVI melanoma) was 10.5 µM, the TGI (LOX IMVI melanoma) was 23.4 µM and the GI50 (HCT-116 colon) was 3.52 µM. It also gave a TGI (HCT-116 colon) of 12.4 µM, a GI50 (SK-MEL-5 melanoma) of 23.4 µM and a TGI (SK-MEL-5 melanoma) of 58.7 µM. It also gave a GI50 (SK-MEL-2 melanoma) of 15.6 µM, a TGI (SK-MEL-2 melanoma) of 29.7 µM and a GI50 (RPMI-8226 leukemia) of 4.84 µM. It also gave a TGI (RPMI-8226 leukemia) of 28.4 µM, a GI50 (HS 578T breast) of 19.9 µM and a TGI (HS 578T breast) of 79.6 µM. The GI50 (SF-539 CNS) was 18 µM, the TGI (SF-539 CNS) was 41 µM and the GI50 (MALME-3M melanoma) was 15.3 µM. For the same compound, the TGI (MALME-3M melanoma) was 33.3 µM, the GI50 (MCF7 breast) was 2.02 µM and the TGI (MCF7 breast) was 4.81 µM. It also gave a GI50 (SN12C renal) of 15.2 µM, a TGI (SN12C renal) of 33.7 µM and a GI50 (SNB-19 CNS) of 14.6 µM. For the same compound, the TGI (SNB-19 CNS) was 29.3 µM, the GI50 (OVCAR-4 ovarian) was 14.7 µM and the TGI (OVCAR-4 ovarian) was 28.6 µM. It also gave a GI50 (UO-31 renal) of 1.82 µM, a TGI (UO-31 renal) of 4.11 µM and a GI50 (SNB-75 CNS) of 21.2 µM. For the same compound, the TGI (SNB-75 CNS) was over 100 µM, the GI50 (OVCAR-8 ovarian) was 14.3 µM and the TGI (OVCAR-8 ovarian) was 28 µM. The GI50 (HL-60(TB) leukemia) was 2.5 µM, the TGI (HL-60(TB) leukemia) was 6.05 µM and the GI50 (IGROV1 ovarian) was 2.48 µM. For the same compound, the TGI (IGROV1 ovarian) was 6.65 µM, the GI50 (HOP-62 NSCLC) was 16.2 µM and the TGI (HOP-62 NSCLC) was 32.2 µM. It also gave a GI50 (OVCAR-5 ovarian) of 39.9 µM, a TGI (OVCAR-5 ovarian) of over 100 µM and a GI50 (A498 renal) of over 100 µM. For the same compound, the TGI (A498 renal) was over 100 µM, the GI50 (MDA-MB-435) was 16.7 µM and the TGI (MDA-MB-435) was 32.2 µM. The GI50 (SK-OV-3 ovarian) was over 100 µM, the TGI (SK-OV-3 ovarian) was over 100 µM and the GI50 (CCRF-CEM leukemia) was 5.16 µM. The TGI (CCRF-CEM leukemia) was 24 µM, the GI50 (MDA-MB-231 breast) was 14.6 µM and the TGI (MDA-MB-231 breast) was 31.9 µM. It also gave a GI50 (UACC-257 melanoma) of 14.6 µM, a TGI (UACC-257 melanoma) of 29.5 µM and a GI50 (DU-145 prostate) of 4.13 µM. For the same compound, the TGI (DU-145 prostate) was 14.5 µM, the GI50 (HCC-2998 colon) was 11.7 µM and the TGI (HCC-2998 colon) was 24.9 µM.
